Source: patent US20050014942A1, “Amide derivatives and drugs” (priority 2001, published 2005)

Legend:
mice = test: Acute toxicity; format: in vivo; conditions: oral 1000 mg/kg, observed for a week after administration
Experimental: Each of the compounds in Examples 1, 9, 31, 120, and 121 was administered.

[1] = Measurement of concentration of compound in rat plasma; format: in vivo; conditions: oral 10 mg/kg; for concentration at 0.25 h: after 0.25 hours; for concentration at 1 h: after 1 hour; for concentration at 4 h: after 4 hours
Experimental: Each of the test compounds was dissolved or suspended in methyl cellulose and the resulting solution or suspension was orally administered to rats at a dosage of 10 mg/kg and blood was collected after 0.25 hours, 1 hour and 4 hours. The concentration in plasma in each of the compounds was measured by HPLC.

[2] = test system: collagen production induced by TGF-β (TIG-3 cells); test: Inhibitory effect on collagen production induced by TGF-β, [3H] proline uptake (TIG-3 cells); format: cell-based; conditions: Homo sapiens, TGF-β1 3 ng/ml
Experimental: As an index of collagen production, the uptake of [^3H] proline was measured.
Using a 96-well microplate, normal human skin derived fibroblast (NHDF, 10^4/well) or human embryonic lung fibroblast (TIG-3, 10^4/well) were cultured in a 10% fetal calf serum (FCS)-containing Dulbecco's modified Eagle medium (DMEM) for one day. After removing the culture supernatant, the cells were washed once with a 0.1% bovine serum albumin (BSA)-containing DMEM medium and then cultured in the 0.1% bovine serum albumin (BSA)-containing DMEM medium for one day. After adding each of the test compounds in each concentration (1, 3, 10 μM), the cells were cultured and, after adding TGF-β1 (3 ng/ml) and [^3H] proline (18.5 kBq/well), the cells were further cultured for additional one day.
After removing the culture supernatant, the cells were washed twice with a phosphate buffer solution (PBS) and dissolved with 0.3M NaOH and 1% sodium dodecylsulfate (SDS), and then each protein fraction was precipitated with trichloroacetic acid (TCA) After the precipitate was filtered through a glass filter (GF/B) and washed, the quantity of [^3H] proline on the glass filter was measured by a liquid scintillation counter. The number of cells was measured by a cell growth measuring kit (XTT, Roche) and the uptake of [^3H] proline was corrected by the number of cells. Inhibitory ratio was calculated as compared with the case where a difference between the uptake of [^3H] proline with or without TGF-β1.

[3] = test system: collagen production induced by TGF-β (NHDF cells); test: Inhibitory effect on collagen production induced by TGF-β, [3H] proline uptake (NHDF cells); format: cell-based, human; conditions: Homo sapiens, NHDF, 10 μM, TGF-β1 3 ng/ml
Summary of the method: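 NHDF or TIG-3 fibroblasts, serum-starved one day in 0.1% BSA DMEM, received test compound (1, 3, 10 μM), then TGF-β1 (3 ng/ml) plus [3H] proline for one more day. TCA-precipitated protein radioactivity was counted and corrected for XTT cell number. Inhibition is relative to the TGF-β1-induced uptake difference.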

Row | melting point [°C] | SMILES | Acute toxicity: deaths (mice) | concentration at 0.25 h [1] [ng/mL] | concentration at 1 h [1] [ng/mL] | concentration at 4 h [1] [ng/mL] | inhibition at 3 µM [2] [%] | inhibition at 10 µM [2] [%] | inhibition at 10 µM [3] [%]
1 |  | Cc1ccc2c(c1)c(C(=O)N1CCN(c3cnc(C(=O)NCCCn4ccnc4)cn3)CC1)c(-c1ccccc1)n2C [Example 31, 5-{4-[(1,5-dimethyl-2-phenyl-1H-indol-3-yl)carbonyl]piperazin-1-yl}-N-[3-(1H-imidazol-1-yl)propyl]pyrazine-2-carboxamide] | no deaths were observed | 320 to 370 | 320 to 640 | 420 to 650 | 36 | 90 | 74
2 |  | Cc1ccc2c(c1)c(C(=O)N1CCN(c3ccc(C(=O)NCCO)cn3)CC1)c(-c1ccccc1)n2C [Example 1, 6-{4-[(1,5-dimethyl-2-phenyl-1H-indol-3-yl)carbonyl]piperazin-1-yl}-N-(2-hydroxyethyl)nicotinamide] | no deaths were observed | 2300 to 29000 | 1300 to 7300 | 750 to 940 | 21 | 56 | 
3 | 224.6 | Cc1ncsc1CCNC(=O)c1cnc(N2CCN(C(=O)c3c(-c4ccccc4)n(C)c4cccnc34)CC2)cn1 [Example 7, 5-{4-[(1-methyl-2-phenyl-1H-pyrrolo[3,2-b]pyridin-3-yl)carbonyl]piperazin-1-yl}-N-[2-(4-methyl-1,3-thiazol-5-yl)ethyl]pyrazine-2-carboxamide] |  |  |  |  |  |  | 
